Experimental findings from patent US20100099113A1, “MINIMIZED SMALL PEPTIDES WITH HIGH AFFINITY FOR FACTOR VIII AND FACTOR VIII-LIKE PROTEINS” (Technische Universitat Muenchen, priority 2006, published 2010) are described below.

Where no end group is shown, it is not given here. [ ]: non-standard residue; d: D form. Bpa = N[C@@H](Cc1ccc(C(=O)c2ccccc2)cc1)C(=O)O; 1Nal = N[C@@H](Cc1cccc2ccccc12)C(=O)O; Bta = N[C@@H](Cc1csc2ccccc12)C(=O)O; NMeY = CN[C@@H](Cc1ccc(O)cc1)C(=O)O; Phg = N[C@H](C(=O)O)c1ccccc1; Abu = CC[C@H](N)C(=O)O

In this assay the target is T1, Plasma-derived (pd-) human Factor VIII (Homo sapiens, UniProt P00451).
T1 construct: from tissue; host or cells: human blood plasma (FVIII concentrate)
Kind of assay: Binding of 125I-labeled pd-FVIII to peptide-coated Toyopearl resin (micro-beads assay). The note with it: for % Binding pdFVIII: peptide immobilized on Toyopearl AF-Epoxy-650M resin, 125I-pd-FVIII, 2 hours room temperature, percent of maximal achievable binding (anti-FVIII Mab 8860-coated resin), mean ± SD of four determinations. The method, then:
Peptides S1 to S84 were immobilized on the Toyopearl AF-Epoxy-650M resin (Tosoh Biosep) as described by Jungbauer et al. For immobilization, 2.5 mg of each peptide was dissolved in 0.25 mL of the immobilization buffer (0.2 M sodium bicarbonate, pH 10.3), and 0.036 g of the dry resin powder (corresponding to 0.125 mL of swollen resin) was added, followed by incubation of the mixture with gentle rotation for 48 hours. Upon incubation for 48 hours the resin was washed once with immobilization buffer, once with 1 M NaCl and then 3 times with binding buffer, and binding of ^125I-labeled pd-FVIII to the peptide-coated and control resin was tested. The coupling density of each peptide in each of the reported experiments was as mentioned in Table 1. The control 0.25 mL portion of the resin was similarly treated in parallel experiment in the absence of peptide and was subsequently used as a control (designated as Background) in ^125I-pd-FVIII binding experiments. ^125I-pd-FVIII Bound/Background ratios were calculated as the amount of ^125I-pd-FVIII, bound to an immobilized peptide, divided by that bound to uncoated control resin, prepared as described above. This ratio represents a Signal/Noise ratio for the micro-beads assay, since ^125I-pd-FVIII bound to peptide represents the signal value and ^125I-pd-FVIII bound to peptide-uncoated resin represents the background (noise) value.
Plasma-derived (pd-) human Factor VIII (FVIII) was purified from concentrate by immunoaffinity chromatography on an anti-FVIII monoclonal antibody column followed by subsequent concentration of pd-FVIII by ion-exchange chromatography using Resource Q HR5/5 column.
The resin with immobilized peptides was washed in the binding buffer (0.01 M Hepes, 0.1 M NaCl, 5 mM CaCl2, 0.01% Tween-80). Subsequently, the resin was diluted in the binding buffer as 1:7 slurry and aliquoted into Eppendorf tubes (40 μL per tube). ^125I-pd-FVIII (100000 cpm in 10 μL) was added to the tubes and the volume of the mixture was adjusted to 100 μL by adding 50 μL of the binding buffer containing 4% BSA to give a 2% final concentration of BSA. After 2 hours of incubation at room temperature on a rotator, the samples were washed 4 times in the binding. After each wash the tubes were centrifuged at 5000 rpm for 1 min in an Eppendorf microcentrifuge, supernatant was discarded, and the resin was re-suspended in the washing buffer, followed by centrifugation under the same conditions. After four washes the tubes with pellet without supernatant were counted for radioactivity. The resin without peptide was processed similarly to account for non-specific pd-FVIII binding to tubes and resin itself, and the radioactivity in this control tube was considered as a background value. Since ^125I-pd-FVIII contains the some fraction damaged during radiolabeling, binding was calculated as a percent of maximal achievable binding, determined in separate experiment with anti-FVIII Mab 8860-coated resin.
All the measurements were performed in duplicates. Each experiment was performed using two independently prepared immobilized peptide samples. The data presented in each table are the mean values of the four determinations: duplicate determination in the two assays performed with beads on which peptides were independently immobilized on the different days. The value of standard deviation of the above quadruplicate determinations (duplicate determinations in two independent experiments) were typically less than 10% of the measured values of ^125I-pd-FVIII binding to peptides.

Where [1] appears, read: Table 2, peptides with C-terminal cysteine linker immobilized on Toyopearl AF-Epoxy-650M resin.
[2] abbreviates: Table 3, hexapeptides with linker cysteine within the binding sequence.

T1 sequence (P00451 20-1667 limits assumed): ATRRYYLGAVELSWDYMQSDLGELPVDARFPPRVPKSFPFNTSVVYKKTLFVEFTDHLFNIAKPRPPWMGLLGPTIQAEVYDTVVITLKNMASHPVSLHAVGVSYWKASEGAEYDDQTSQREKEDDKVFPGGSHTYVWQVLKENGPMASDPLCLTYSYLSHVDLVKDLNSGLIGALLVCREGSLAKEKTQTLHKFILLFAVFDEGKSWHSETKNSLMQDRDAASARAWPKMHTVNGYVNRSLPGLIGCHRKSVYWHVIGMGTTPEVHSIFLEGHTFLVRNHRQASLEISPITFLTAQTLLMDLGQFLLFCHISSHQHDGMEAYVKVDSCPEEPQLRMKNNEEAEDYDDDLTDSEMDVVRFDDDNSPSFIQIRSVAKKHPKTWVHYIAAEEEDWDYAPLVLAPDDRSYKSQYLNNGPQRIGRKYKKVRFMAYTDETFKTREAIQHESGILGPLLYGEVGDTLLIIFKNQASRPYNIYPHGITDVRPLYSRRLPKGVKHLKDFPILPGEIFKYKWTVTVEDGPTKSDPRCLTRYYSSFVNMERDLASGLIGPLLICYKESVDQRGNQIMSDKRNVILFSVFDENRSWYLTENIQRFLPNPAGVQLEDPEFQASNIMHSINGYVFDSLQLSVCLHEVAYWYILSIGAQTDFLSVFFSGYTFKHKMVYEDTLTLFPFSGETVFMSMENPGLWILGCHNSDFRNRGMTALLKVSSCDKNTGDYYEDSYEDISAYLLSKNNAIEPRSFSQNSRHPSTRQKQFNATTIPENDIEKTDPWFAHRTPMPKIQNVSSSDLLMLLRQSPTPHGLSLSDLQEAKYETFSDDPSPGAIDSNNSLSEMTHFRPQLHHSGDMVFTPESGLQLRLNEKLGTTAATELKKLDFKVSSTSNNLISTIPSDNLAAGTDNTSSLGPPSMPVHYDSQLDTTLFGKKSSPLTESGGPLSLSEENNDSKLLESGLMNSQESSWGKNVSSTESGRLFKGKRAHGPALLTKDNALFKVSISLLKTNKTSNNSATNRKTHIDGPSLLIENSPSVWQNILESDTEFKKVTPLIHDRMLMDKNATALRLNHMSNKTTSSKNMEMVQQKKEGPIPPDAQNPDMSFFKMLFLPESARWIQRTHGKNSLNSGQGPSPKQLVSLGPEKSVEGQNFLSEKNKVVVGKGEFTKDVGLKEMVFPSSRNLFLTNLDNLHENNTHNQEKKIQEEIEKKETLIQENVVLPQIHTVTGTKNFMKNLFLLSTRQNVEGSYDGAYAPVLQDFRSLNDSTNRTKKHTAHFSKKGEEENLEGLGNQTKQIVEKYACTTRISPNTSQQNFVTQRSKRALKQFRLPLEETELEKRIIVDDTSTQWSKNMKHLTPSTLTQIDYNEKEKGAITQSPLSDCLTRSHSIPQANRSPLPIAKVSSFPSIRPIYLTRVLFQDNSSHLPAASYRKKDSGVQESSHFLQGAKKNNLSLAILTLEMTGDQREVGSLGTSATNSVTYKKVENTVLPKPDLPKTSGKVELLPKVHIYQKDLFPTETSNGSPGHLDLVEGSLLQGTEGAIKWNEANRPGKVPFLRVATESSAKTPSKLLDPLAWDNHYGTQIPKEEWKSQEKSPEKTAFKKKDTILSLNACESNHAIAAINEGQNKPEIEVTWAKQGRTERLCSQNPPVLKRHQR
T1 sequence (P00451 1668-2351 limits assumed): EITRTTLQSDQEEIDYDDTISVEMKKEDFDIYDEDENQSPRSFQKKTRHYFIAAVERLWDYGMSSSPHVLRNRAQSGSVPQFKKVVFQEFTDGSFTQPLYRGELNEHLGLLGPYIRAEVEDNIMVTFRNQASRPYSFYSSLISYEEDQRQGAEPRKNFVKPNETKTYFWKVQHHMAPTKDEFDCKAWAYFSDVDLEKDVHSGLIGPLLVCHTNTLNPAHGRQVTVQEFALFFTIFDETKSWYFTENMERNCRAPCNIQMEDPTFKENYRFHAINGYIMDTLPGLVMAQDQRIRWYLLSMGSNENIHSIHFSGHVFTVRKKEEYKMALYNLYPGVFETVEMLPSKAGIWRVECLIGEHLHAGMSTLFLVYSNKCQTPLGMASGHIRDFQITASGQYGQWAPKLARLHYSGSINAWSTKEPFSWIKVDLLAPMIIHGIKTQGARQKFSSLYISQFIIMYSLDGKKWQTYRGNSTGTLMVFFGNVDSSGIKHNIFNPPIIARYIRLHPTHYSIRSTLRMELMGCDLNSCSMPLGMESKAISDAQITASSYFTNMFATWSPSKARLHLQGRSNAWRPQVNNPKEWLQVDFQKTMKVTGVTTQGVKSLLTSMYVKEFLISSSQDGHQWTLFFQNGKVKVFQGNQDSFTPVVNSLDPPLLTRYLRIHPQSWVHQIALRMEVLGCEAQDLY

In the case of EYHSWEYC [reference compound], the “% Binding Factor VIII” value under setting [1] was 50%.

For the substance y-d-w-v-c-y [S19], the “% Binding pdFVIII” value is given as 73.4 ± 5.6%. In addition, the “% Binding Factor VIII” value under setting [2] is 73%.

Take Y-C-V-W-D-Y (YCVWDY) [S18]: the “% Binding pdFVIII” value came out at 72.0 ± 1.2%. Under setting [2], the “% Binding Factor VIII” value is on record as 72%.

Take YHS[Bpa]EYC [S37]: the “% Binding pdFVIII” value was 39.1 ± 1.2%.

With S-Bpa-E-Bpa-C [S61], the “% Binding pdFVIII” value is listed as 1.1 ± 3.3%.

Regarding Ac-Y-C-T-W-D-Y-NH2 (Ac-YCTWDY-NH2) [S4], the “% Binding pdFVIII” value was found to be 58.5 ± 2.4%.

Consider (N-Me)Y-C-S-W-E-Y ([NMeY]CSWEY) [S69], for which the “% Binding pdFVIII” value amounted to 7.1 ± 0.7%.

S-Phe(3,4-Cl)-E-Bpa-C [S67]: the “% Binding pdFVIII” value was found to be 47.7 ± 0.0%.

For Y-f-S-W-(N-Me)E-Y-C [S28], the “% Binding pdFVIII” value amounted to 65.1 ± 2.5%.

As for S-Bpa-E-Y-C [S71], the “% Binding pdFVIII” value is on record as 30.6 ± 0.4%.

Turning to Y-C-(N-Me)S-W-E-Y [S24], the “% Binding pdFVIII” value was determined as 14.4 ± 0.4%.

Regarding y-d-w-t-c-y [S13], the “% Binding pdFVIII” value is reported as 53.8 ± 0.5%.

In the case of Ac-Y-H-S-W-E-Y-C (Ac-YHSWEYC) [S32], the “% Binding pdFVIII” value is given as 62.2 ± 4.4%. Besides, under setting [1], the “% Binding Factor VIII” value stood at 62%.

Take y-d-w-a-c-y [S17]: the “% Binding pdFVIII” value worked out at 75.1 ± 0.6%. In addition, the “% Binding Factor VIII” value under setting [2] came to 75%.

With Ac-Y-C-S-W-E-Y (Ac-YCSWEY) [S9], the “% Binding pdFVIII” value is listed as 81.6 ± 2.8%. Under setting [2], the “% Binding Factor VIII” value was determined as 82%.

For Y-C-S-(N-Me)W-E-Y [S70], the “% Binding pdFVIII” value stood at 72.2 ± 1.7%.

For the substance Y-c-S-W-E-Y [S6], the “% Binding pdFVIII” value amounted to 55.8 ± 2.3%.

Take Y-C-S-W-E-(N-Me)Y [S26]: the “% Binding pdFVIII” value stood at 48.8 ± 3.1%.

With Y-Y-S-W-E-Y-C (YYSWEYC) [S68], the “% Binding pdFVIII” value was 54.3 ± 2.1%.

In the case of y-e-w-v-c-y [S84], the “% Binding pdFVIII” value is 77.0 ± 4.2%.

Take Y-F-(N-Me)S-W-E-Y-C [S22]: the “% Binding pdFVIII” value was 47.6 ± 4.6%.

On to S-Phe(4-Cl)-E--Bpa-C [S66], for which the “% Binding pdFVIII” value was 40.0 ± 2.5%.

S-Bip(4,4′)-E-Bpa-C [S64]: the “% Binding pdFVIII” value is given as 36.2 ± 1.5%.

On to Y-C-S-W-E-Y (YCSWEY) [S7], for which the “% Binding pdFVIII” value turned out to be 64.1 ± 3.2%. Also, under setting [2], the “% Binding Factor VIII” value was 64%.

On to S-(2-Nal)-E-Bip(4,4′)-C [S63], for which the “% Binding pdFVIII” value is 41.4 ± 1.2%.

Take H-S-W-E-Y-C (HSWEYC) [S29]: the “% Binding pdFVIII” value stood at 54.4 ± 4.9%. Also, the “% Binding Factor VIII” value under setting [1] was found to be 54%.

For the substance YHSWE[Phg]C [S74], the “% Binding pdFVIII” value came out at 34.9 ± 0.4%.

On to Y-C-S-W-(N-Me)E-Y [S25], for which the “% Binding pdFVIII” value is recorded as 45.2 ± 2.5%.

Take Y-C-A-W-D-Y (YCAWDY) [S16]: the “% Binding pdFVIII” value came to 72.0 ± 15.5%. The “% Binding Factor VIII” value under setting [2] worked out at 72%.

Turning to Ac-Y-C-T-W-D-Y (Ac-YCTWDY) [S14], the “% Binding pdFVIII” value amounted to 82.3 ± 1.4%.

Regarding Y-f-(N-Me)S-W-E-Y-C [S27], the “% Binding pdFVIII” value came to 57.5 ± 4.6%.

Regarding YCS[1Nal]EY [S80], the “% Binding pdFVIII” value is 35.3 ± 3.0%.

Turning to S-Bpa-E-(1-Nal)-C [S57], the “% Binding pdFVIII” value stood at 35.4 ± 6.6%.

Regarding Ac-Y-C-S-W-E-Y-NH2 (Ac-YCSWEY-NH2) [S2], the “% Binding pdFVIII” value was found to be 59.2 ± 4.6%.

As to Y-f-S-W-E-Y-C [S34], the “% Binding pdFVIII” value is reported as 53.6 ± 2.7%. The “% Binding Factor VIII” value under setting [1] came out at 54%.

As for S-Bpa-E-Phe(4-Cl)-C [S60], the “% Binding pdFVIII” value turned out to be 33.9 ± 3.2%.

With S-(1-Nal)-E-Bip(4,4′)-C [S62], the “% Binding pdFVIII” value is 38.6 ± 0.4%.

For Y-C-T-W-E-Y (YCTWEY) [S10], the “% Binding pdFVIII” value came out at 80.3 ± 1.3%. Under setting [2], the “% Binding Factor VIII” value was 80%.

Regarding y-e-w-a-c-y [S83], the “% Binding pdFVIII” value is recorded as 53.6 ± 2.5%.

c-y-e-w-s [S35]: the “% Binding pdFVIII” value is listed as 37.1 ± 1.0%.

For Y-C-S-W-D-Y (YCSWDY) [S11], the “% Binding pdFVIII” value was 79.9 ± 4.0%. Moreover, the “% Binding Factor VIII” value under setting [2] is listed as 80%.

Regarding Y-F-S-W-(N-Me)E-Y-C [S23], the “% Binding pdFVIII” value is 53.1 ± 0.3%.

With Ac-H-S-W-E-Y-C (Ac-HSWEYC) [S31], the “% Binding pdFVIII” value was 48.9 ± 3.0%. The “% Binding Factor VIII” value under setting [1] is recorded as 49%.

As to YF[Abu]WEFC [S33], the “% Binding pdFVIII” value came to 53.4 ± 5.3%. Besides, the “% Binding Factor VIII” value under setting [1] came to 53%.

As for S-Bpa-E-Phg-C [S72], the “% Binding pdFVIII” value is given as 41.3 ± 1.4%.

Consider S-Bpa-E-Bip(4,4′)-C [S59], for which the “% Binding pdFVIII” value came out at 30.9 ± 2.1%.

Turning to Y-H-S-Phe(3,4-Cl)-E-Y-C [S77], the “% Binding pdFVIII” value was 34.4 ± 3.2%.

Consider Ac-S-W-E-Y-C [S30], for which the “% Binding pdFVIII” value was 42.6 ± 1.3%. In addition, under setting [1], the “% Binding Factor VIII” value was 43%.

Consider YHS[Bta]EYC [S78], for which the “% Binding pdFVIII” value is 6.0 ± 0.8%.

As for S-Bta-E-Bpa-C [S65], the “% Binding pdFVIII” value is reported as 39.2 ± 2.4%.

As to y-e-w-s-c-y [S8], the “% Binding pdFVIII” value amounted to 69.4 ± 6.6%. The “% Binding Factor VIII” value under setting [2] is 69%.

Consider Y-W-E-Y-C [S79], for which the “% Binding pdFVIII” value worked out at 47.7 ± 0.45%.

For the substance S-W-E-Bpa-C [S73], the “% Binding pdFVIII” value was 40.0 ± 2.8%.

For YH[Abu]WDYC [S39], the “% Binding pdFVIII” value is on record as 46.4 ± 0.8%.

Consider Y-H-V-W-E-Y-C (YHVWEYC) [S76], for which the “% Binding pdFVIII” value is recorded as 26.6 ± 1.3%.

Consider Y-C-A-W-E-Y (YCAWEY) [S81], for which the “% Binding pdFVIII” value is 72.1 ± 7.2%.

YHS[Bpa]E[Phg]C [S75]: the “% Binding pdFVIII” value was found to be 28.1 ± 0.3%.

In the case of Y-homoC-S-W-E-Y [S5], the “% Binding pdFVIII” value worked out at 59.7 ± 3.8%.

As for Y-C-T-W-D-Y-NH2 (YCTWDY-NH2) [S3], the “% Binding pdFVIII” value is 42.3 ± 4.3%.

YCS[Bpa]EY [S15]: the “% Binding pdFVIII” value was determined as 49.4 ± 2.2%.

Regarding (N-Me)S-W-E-Y-C [S21], the “% Binding pdFVIII” value came out at 48.4 ± 3.7%.

For the substance S-Bpa-E-(2-Nal)-C [S58], the “% Binding pdFVIII” value came to 42.0 ± 5.3%.

Y-C-T-W-D-Y (YCTWDY) [S12]: the “% Binding pdFVIII” value amounted to 74.2 ± 4.2%. Also, under setting [2], the “% Binding Factor VIII” value was 74%.

Y-C-V-W-E-Y (YCVWEY) [S82]: the “% Binding pdFVIII” value is on record as 94.1 ± 4.70%.

In the case of Y-C-S-W-E-Y-NH2 (YCSWEY-NH2) [S1], the “% Binding pdFVIII” value is 41.8 ± 3.2%.
